Assays:
[1] = molecular target: human cathepsin K (UniProt P43236); assay: Cathepsin K Assay (hrbCat K); format: biochemical; conditions: Z-Leu-Arg-AMC substrate, pH 5.5, 15 min preincubation; read-out: hrbCat K (IP (nM))
Outline: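 Human cathepsin K (0.4 nM) was preincubated 15 min at room temperature with compound in 50 mM MES pH 5.5, 2.5 mM EDTA, 2.5 mM DTT and 10% DMSO. Inhibition was fitted to a dose-response model.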

[2] = molecular target: T1, human cathepsin F (Homo sapiens, UniProt Q9UBX1); assay: Cathepsin F assay (hCat F); format: biochemical; conditions: Z-Phe-Arg-AMC substrate, pH 5.5, 15 min preincubation; read-out: hCat F (IP (nM))
T1 sequence (Q9UBX1 271-484): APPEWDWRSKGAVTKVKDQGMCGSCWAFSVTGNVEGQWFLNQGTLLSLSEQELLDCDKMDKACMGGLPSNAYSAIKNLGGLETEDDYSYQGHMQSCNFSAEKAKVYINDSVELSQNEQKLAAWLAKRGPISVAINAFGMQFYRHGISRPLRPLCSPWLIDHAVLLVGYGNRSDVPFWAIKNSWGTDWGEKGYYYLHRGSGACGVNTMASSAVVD
Outline: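 AMC release from Z-Phe-Arg-AMC, added at 8 μM, was monitored fluorometrically (360/460 nm) for 20 min after 10 nM enzyme and compound had been preincubated 15 min at room temperature. Buffer: MES 50 mM pH 5.5, EDTA and DTT 2.5 mM each, 10% DMSO. Compound DMSO dilutions spanned 500–0.025 μM (3-fold). Dose-response fitting gave % inhibition.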

SMILES	IC50 [1] [nM]	IC50 [2] [nM]
COc1cncc(F)c1-c1nc([C@@H]2CCCC[C@H]2C(=O)NC2(C#N)CC2)c(-c2ccc(N3CCS(=O)(=O)CC3)cc2)s1 [Example 97, (1R,2R)-N-(1-cyanocyclopropyl)-2-(5-(4-(1,1-dioxidothiomorpho-lino)phenyl)-2-(3-fluoro-5-methoxypyridin-4-yl)thiazol-4-yl)cyclohexane-carboxamide]	2.8	3080
CC1(C)CN(c2nc([C@@H]3CCCC[C@H]3C(=O)NC3(C#N)CC3)c(-c3ccc(N4CCS(=O)(=O)CC4)cc3)s2)CC(C)(C)O1 [Example 101, (1R,2R)-N-(1-cyanocyclopropyl)-2-(5-(4-(1,1-dioxidothiomorpho-lino)phenyl)-2-(2,2,6,6-tetramethylmorpho-lino)thiazol-4-yl)cyclohexane-carboxamide]	48.8	≥ 10000
N#CC1(NC(=O)[C@@H]2CCCC[C@H]2c2nc(N3CCC4(CC3)CC4)sc2-c2ccc(N3CCS(=O)(=O)CC3)cc2)CC1 [Example 102, (1R,2R)-N-(1-cyanocyclopropyl)-2-(5-(4-(1,1-dioxidothiomorpho-lino)phenyl)-2-(6-azaspiro[2.5]octan-6-yl)thiazol-4-yl)cyclohexane-carboxamide]	2.4	1000
N#CC1(NC(=O)[C@@H]2CCCC[C@H]2c2nc(N3CCCC(F)(F)C3)sc2-c2ccc(N3CCS(=O)(=O)CC3)cc2)CC1 [Example 106, (1R,2R)-N-(1-cyanocyclopropyl)-2-(2-(3,3-difluoropiperidin-1-yl)-5-(4-(1,1-dioxidothiomorpho-lino)phenyl)thiazol-4-yl)cyclohexane-carboxamide]	2.9	≥ 10000
N#CC1(NC(=O)[C@@H]2CCC(F)(F)C[C@H]2c2nc(-c3ccc(F)cn3)sc2-c2ccc(N3CCS(=O)(=O)CC3)cc2)CC1 [Example 107, (1R,2R)-N-(1-cyanocyclopropyl)-2-(5-(4-(1,1-dioxidothiomorpho-lino)phenyl)-2-(5-fluoropyridin-2-yl)thiazol-4-yl)-4,4-difluorocyclohexane-carboxamide]	3.3	1000
N#CC1(NC(=O)[C@@H]2CCC(F)(F)C[C@H]2c2nc(-c3cncc(Cl)c3)sc2-c2ccc(N3CCS(=O)(=O)CC3)cc2)CC1 [Example 115, (1R,2R)-2-(2-(5-chloropyridin-3-yl)-5-(4-(1,1-dioxidothiomorpho-lino)phenyl)thiazol-4-yl)-N-(1-cyanocyclopropyl)-4,4-difluorocyclohexane-carboxamide]	2.2	2660
N#CC1(NC(=O)[C@@H]2C[C@@H](F)CC[C@H]2c2nc(N3CCOCC3)sc2-c2ccc(N3CCS(=O)(=O)CC3)cc2)CC1 [Example 116, (1R,2R,5S)-N-(1-cyanocyclopropyl)-2-(5-(4-(1,1-dioxidothiomorpho-lino)phenyl)-2-morpholinothiazol-4-yl)-5-fluorocyclohexane-carboxamide]	2.4	1000
N#CC1(NC(=O)[C@@H]2CCCC[C@H]2c2nc(N3CC(F)(F)C3)sc2-c2ccc(N3CCS(=O)(=O)CC3)cc2)CC1 [Example 117, (1R,2R)-N-(1-cyanocyclopropyl)-2-(2-(3,3-difluoroazetidin-1-yl)-5-(4-(1,1-dioxidothiomorpho-lino)phenyl)thiazol-4-yl)cyclohexane-carboxamide]	8	≥ 10000
N#CC1(NC(=O)[C@@H]2CCCC[C@H]2c2nc(-c3ccnc(C(F)(F)F)n3)sc2-c2ccc(N3CCS(=O)(=O)CC3)cc2)CC1 [Example 118, (1R,2R)-N-(1-cyanocyclopropyl)-2-(5-(4-(1,1-dioxidothiomorpho-lino)phenyl)-2-(2-(trifluoromethyl)pyrimidin-4-yl)thiazol-4-yl)cyclohexane-carboxamide]	59.4	≥ 10000
N#CC1(NC(=O)[C@@H]2CCCC[C@H]2c2nc(-c3ccc(F)c(C4CCOCC4)c3)sc2-c2ccc(N3CCS(=O)(=O)CC3)cc2)CC1 [Example 122, (1R,2R)-N-(1-cyanocyclopropyl)-2-(5-(4-(1,1-dioxidothiomorpho-lino)phenyl)-2-(4-fluoro-3-(tetrahydro-2H-pyran-4-yl)phenyl)thiazol-4-yl)cyclohexane-carboxamide]	2.2	1110
CS(=O)(=O)c1ccc(-c2sc(-c3cncc(F)c3)nc2[C@@H]2CCCC[C@H]2C(=O)NC2(C#N)CC2)cc1 [Example 125, (1R,2R)-N-(1-cyanocyclopropyl)-2-(2-(5-fluoropyridin-3-yl)-5-(4-(methylsulfonyl)phenyl)thiazol-4-yl)cyclohexane-carboxamide]	7.5	310

These reach a lower IC50 [1]. Values come first.

IC50 [1] [nM]	IC50 [2] [nM]	SMILES
2.1	1920	N#CC1(NC(=O)[C@@H]2CCCC[C@H]2c2nc(-c3ccnc(C(F)(F)F)c3)sc2-c2ccc(N3CCS(=O)(=O)CC3)cc2)CC1 [Example 96, (1R,2R)-N-(1-cyanocyclopropyl)-2-(5-(4-(1,1-dioxidothiomorpho-lino)phenyl)-2-(2-(trifluoromethyl)pyridin-4-yl)thiazol-4-yl)cyclohexane-carboxamide]
0.6	1600	N#CC1(NC(=O)[C@@H]2CCCC[C@H]2c2nc(-c3cnc(C(F)(F)F)nc3)sc2-c2ccc(N3CCS(=O)(=O)CC3)cc2)CC1 [Example 98, (1R,2R)-N-(1-cyanocyclopropyl)-2-(5-(4-(1,1-dioxidothiomorpho-lino)phenyl)-2-(2-(trifluoromethyl)pyrimidin-5-yl)thiazol-4-yl)cyclohexane-carboxamide]
1.7	3330	N#CC1(NC(=O)[C@@H]2CCCC[C@H]2c2nc(-c3cnc(C4CC4)c(F)c3)sc2-c2ccc(N3CCS(=O)(=O)CC3)cc2)CC1 [Example 99, (1R,2R)-N-(1-cyanocyclopropyl)-2-(2-(6-cyclopropyl-5-fluoropyridin-3-yl)-5-(4-(1,1-dioxidothiomorpho-lino)phenyl)thiazol-4-yl)cyclohexane-carboxamide]
1.2	1000	N#CC1(NC(=O)[C@@H]2CCCC[C@H]2c2nc(N3CCOC(c4ccccc4)C3)sc2-c2ccc(N3CCS(=O)(=O)CC3)cc2)CC1 (stereo partly drawn) [Example 103, (1R,2R)-N-(1-cyanocyclopropyl)-2-(5-(4-(1,1-dioxidothiomorpho-lino)phenyl)-2-(2-phenylmorpholino)thiazol-4-yl)cyclohexane-carboxamide]
1.7	3330	N#CC1(NC(=O)[C@@H]2CCCC[C@H]2c2nc(-c3cccc(C4CCOCC4)c3)sc2-c2ccc(N3CCS(=O)(=O)CC3)cc2)CC1 [Example 110, (1R,2R)-N-(1-cyanocyclopropyl)-2-(5-(4-(1,1-dioxidothiomorpho-lino)phenyl)-2-(3-(tetrahydro-2H-pyran-4-yl)phenyl)thiazol-4-yl)cyclohexane-carboxamide]
1.1	1000	COc1ccc(-c2nc([C@@H]3CC[C@H](F)C[C@H]3C(=O)NC3(C#N)CC3)c(-c3ccc(N4CCS(=O)(=O)CC4)cc3)s2)nc1 [Example 114, (1R,2R,5S)-N-(1-cyanocyclopropyl)-2-(5-(4-(1,1-dioxidothiomorpho-lino)phenyl)-2-(5-methoxypyridin-2-yl)thiazol-4-yl)-5-fluorocyclohexane-carboxamide]
1.3	1200	Cc1nccc(-c2nc([C@@H]3CCCC[C@H]3C(=O)NC3(C#N)CC3)c(-c3ccc(N4CCS(=O)(=O)CC4)cc3)s2)n1 [Example 119, (1R,2R)-N-(1-cyanocyclopropyl)-2-(5-(4-(1,1-dioxidothiomorpho-lino)phenyl)-2-(2-methylpyrimidin-4-yl)thiazol-4-yl)cyclohexane-carboxamide]
1.4	1110	N#CC1(NC(=O)[C@@H]2CCCC[C@H]2c2nc(-c3ccc4c(c3)OCCO4)sc2-c2ccc(N3CCS(=O)(=O)CC3)cc2)CC1 [Example 120, (1R,2R)-N-(1-cyanocyclopropyl)-2-(2-(2,3-dihydrobenzo[b][1,4]dioxin-6-yl)-5-(4-(1,1-dioxidothiomorpho-lino)phenyl)thiazol-4-yl)cyclohexane-carboxamide]
1.5	1110	N#CC1(NC(=O)[C@@H]2CCCC[C@H]2c2nc(-c3ccc(C4CCOCC4)cc3)sc2-c2ccc(N3CCS(=O)(=O)CC3)cc2)CC1 [Example 121, (1S,2R)-N-(1-cyanocyclopropyl)-2-(5-(4-(1,1-dioxidothiomorpho-lino)phenyl)-2-(4-(tetrahydro-2H-pyran-4-yl)phenyl)thiazol-4-yl)cyclohexane-carboxamide]
1.7	2490	N#CCNC(=O)[C@@H]1C[C@@H](F)CC[C@H]1c1nc(-c2cncc(F)c2)sc1-c1ccc(N2CCS(=O)(=O)CC2)cc1 [Example 123, (1R,2R,5S)-N-(cyanomethyl)-2-(5-(4-(1,1-dioxidothiomorpho-lino)phenyl)-2-(5-fluoropyridin-3-yl)thiazol-4-yl)-5-fluorocyclohexane-carboxamide]
1.8	3120	N#CCNC(=O)[C@@H]1C[C@@H](F)CC[C@H]1c1nc(-c2ccc(F)cn2)sc1-c1ccc(N2CCS(=O)(=O)CC2)cc1 [Example 124, (1R,2R,5S)-N-(cyanomethyl)-2-(5-(4-(1,1-dioxidothiomorpho-lino)phenyl)-2-(5-fluoropyridin-2-yl)thiazol-4-yl)-5-fluorocyclohexane-carboxamide]
